Laboratory results reported in ChEMBL document CHEMBL5126512, “Current status of carbazole hybrids as anticancer agents” (Eur J Med Chem, 2022).
Each block holds one compound with its values, some of them ahead of it.

Legend:
MCF7 [1] = assay: Potency index, ratio of Doxorubicin IC50 to compound IC50 for cytotoxicity against human MCF7 cells by MTT assay; assay type: functional
MCF7 [2] = assay: Cytotoxicity against human MCF7 cells assessed as cell growth inhibition measured after 48 hrs by MTT assay; assay type: functional, cell-based; conditions: MCF7, 48 h
DU-145 [3] = assay: Antiproliferative activity against human DU-145 cells assessed as cell growth inhibition measured after 24 hrs by MTT assay; assay type: functional, cell-based; conditions: DU-145, 24 h
SK-OV-3 = assay: Antiproliferative activity against human SK-OV-3 cells assessed as cell growth inhibition measured after 24 hrs by MTT assay; assay type: functional, cell-based; conditions: SK-OV-3, 24 h
B16-F10 = assay: Antiproliferative activity against mouse B16-F10 cells assessed as cell growth inhibition measured after 24 hrs by MTT assay; assay type: functional, cell-based; conditions: B16-F10, 24 h
MDA-MB-231 [4] = assay: Antiproliferative activity against human MDA-MB-231 cells assessed as cell growth inhibition measured after 24 hrs by MTT assay; assay type: functional, cell-based; conditions: MDA-MB-231, 24 h
MCF7 [5] = assay: Antiproliferative activity against human MCF7 cells assessed as cell growth inhibition measured after 72 hrs by MTT assay; assay type: functional, cell-based; conditions: MCF7, 72 h
MDA-MB-231 [6] = assay: Antiproliferative activity against human MDA-MB-231 cells assessed as cell growth inhibition measured after 72 hrs by MTT assay; assay type: functional, cell-based; conditions: MDA-MB-231, 72 h
MCF7 [7] = assay: Anticancer activity against human MCF7 cells assessed as cell growth inhibition measured after 48 hrs by MTT assay; assay type: functional, cell-based; conditions: MCF7, 48 h
A549 [8] = assay: Anticancer activity against human A549 cells assessed as cell growth inhibition measured after 48 hrs by MTT assay; assay type: functional, cell-based; conditions: A549, 48 h
Jurkat = assay: Antiproliferative activity against human Jurkat cells assessed as cell growth inhibition measured after 48 hrs by MTT assay; assay type: functional, cell-based
SW837 = assay: Antiproliferative activity against human SW837 cells assessed as cell growth inhibition measured after 48 hrs by MTT assay; assay type: functional, cell-based; conditions: SW837, 48 h
MDA-MB-231 [9] = assay: Antiproliferative activity against human MDA-MB-231 cells assessed as cell growth inhibition measured after 48 hrs by MTT assay; assay type: functional, cell-based; conditions: MDA-MB-231, 48 h
HCT-116 = assay: Antiproliferative activity against human HCT-116 cells assessed as cell growth inhibition measured after 48 hrs by MTT assay; assay type: functional, cell-based; conditions: HCT-116, 48 h
HT-29 = assay: Antiproliferative activity against human HT-29 cells assessed as cell growth inhibition measured after 48 hrs by MTT assay; assay type: functional, cell-based; conditions: HT-29, 48 h
K562 = assay: Cytotoxicity activity against human K562 cells assessed as cell growth inhibition measured after 72 hrs by MTT assay; assay type: functional, cell-based; conditions: K562, 72 h
[10] = Cytotoxicity activity against human PBMC cells assessed as cell growth inhibition measured after 72 hrs by MTT assay; assay type: toxicity, cell-based
[11] = Cytotoxicity activity against African green monkey vero cells assessed as cell growth inhibition measured after 72 hrs by MTT assay; assay type: toxicity, cell-based, Chlorocebus sabaeus
HeLa [12] = assay: Cytotoxicity against human HeLa cells assessed as cell growth inhibition measured after 48 hrs by MTT assay; assay type: functional, cell-based
MDA-MB-231 [13] = assay: Cytotoxicity against human MDA-MB-231 cells assessed as cell growth inhibition measured after 48 hrs by MTT assay; assay type: functional, cell-based; conditions: MDA-MB-231, 48 h
[14] = Cytotoxicity against human HUVEC cells assessed as cell growth inhibition measured after 48 hrs by MTT assay; assay type: toxicity, cell-based
[15] = Cytotoxicity against human MRC5 cells assessed as cell growth inhibition measured after 72 by Cell-Titre Glo luminescent cell viability assay; assay type: toxicity, cell-based
[16] = Cytotoxicity against human ARPE-19 cells assessed as cell growth inhibition measured after 72 by Cell-Titre Glo luminescent cell viability assay; assay type: toxicity, cell-based
SW1990 = assay: Anticancer activity against human SW1990 cells assessed as cell growth inhibition measured after 72 hrs by Cell-Titre Glo luminescent cell viability assay; assay type: functional, cell-based; conditions: SW1990, 72 h
ASPC1 = assay: Anticancer activity against human ASPC1 cells assessed as cell growth inhibition measured after 72 hrs by Cell-Titre Glo luminescent cell viability assay; assay type: functional, cell-based; conditions: ASPC1, 72 h
[17] = Cytotoxicity against human NHDF cells assessed as cell growth inhibition measured after 72 hrs by SRB assay; assay type: toxicity, cell-based
A498 = assay: Antiproliferative activity against human A498 cells assessed as cell growth inhibition measured after 72 hrs by SRB assay; assay type: functional, cell-based; conditions: A498, 72 h
A549 [18] = assay: Antiproliferative activity against human A549 cells assessed as cell growth inhibition measured after 72 hrs by SRB assay; assay type: functional, cell-based; conditions: A549, 72 h
SMMC-7721 = assay: Cytotoxicity against human SMMC-7721 cells assessed as cell growth inhibition measured after 48 hrs by MTT assay; assay type: functional, cell-based; conditions: SMMC-7721, 48 h
Hep 3B2 = assay: Cytotoxicity against human Hep3B cells assessed as cell growth inhibition measured after 48 hrs by MTT assay; assay type: functional, cell-based
HepG2 [19] = assay: Antitumor activity against human HepG2 xenografted in BALB/c nude mouse assessed as tumor growth inhibition at 50 mg/kg, iv administered every 2 days and measured upto 30 days relative to control; assay type: functional; conditions: read-out: TGI
PA-1 = assay: Antiproliferative activity against human PA-1 cells assessed as cell growth inhibition measured after 48 hrs by MTT assay; assay type: functional, cell-based; conditions: PA-1, 48 h
HepG2 [20] = assay: Antiproliferative activity against human HepG2 cells assessed as cell growth inhibition measured after 48 hrs by MTT assay; assay type: functional, cell-based; conditions: HepG2, 48 h
HeLa [21] = assay: Antiproliferative activity against human HeLa cells assessed as cell growth inhibition measured after 48 hrs by MTT assay; assay type: functional, cell-based
OVCAR-3 = assay: Antiproliferative activity against human OVCAR-3 cells assessed as cell growth inhibition measured after 48 hrs by MTT assay; assay type: functional, cell-based; conditions: OVCAR-3, 48 h
DU-145 [22] = assay: Antiproliferative activity against human DU-145 cells assessed as cell growth inhibition measured after 48 hrs by MTT assay; assay type: functional, cell-based; conditions: DU-145, 48 h

SMILES: N#CC1=C(N)Oc2ccc3c([nH]c4ccccc43)c2C12C(=O)N(Cc1cn(Cc3ccc([N+](=O)[O-])cc3)nn1)c1ccccc12 (stereo not drawn)
Ratio IC50 (MCF7 [1]): 2.1
IC50 (MCF7 [2]): 2.13 µM

IC50 (DU-145 [3]): 5.1 µM
IC50 (SK-OV-3): 5.1 µM
IC50 (B16-F10): 5.1 µM
IC50 (MDA-MB-231 [4]): 5.1 µM
SMILES: CNC1=C([N+](=O)[O-])C(c2cc(OC)c(OC)c(OC)c2)c2ccc3[nH]c4ccccc4c3c2O1 (stereo not drawn)

IC50 (MCF7 [5]): 4.4 µM
IC50 (MDA-MB-231 [6]): 4.4 µM
SMILES: C[N+](C)(C)CCN1CCN(CCCCCCn2c3ccccc3c3cc(Cl)ccc32)CC1

IC50 (MCF7 [7]): 21 µM
IC50 (A549 [8]): 20 µM
SMILES: O=C1c2[nH]c3ccc(Cl)cc3c2CC[C@@]12[C@@H](c1ccc(Cl)cc1)C1CSCN1C21c2ccccc2-c2nc3ccccc3nc21 (stereo partly drawn)

SMILES: O=C(Cn1c2ccccc2c2c3oc(=O)cc(COC(=O)CCCc4ccc(N(CCCl)CCCl)cc4)c3ccc21)NCCC[P+](c1ccccc1)(c1ccccc1)c1ccccc1
IC50 (Jurkat): 20 µM

IC50 (SW837): 16 µM
IC50 (MDA-MB-231 [9]): 16 µM
IC50 (HCT-116): 18 µM
IC50 (HT-29): 18 µM
SMILES: Oc1cc2[nH]c3ccccc3c2cc1CN1CCCCC1

SMILES: Cc1c2ccncc2c(C)c2c1[nH]c1c(S(=O)(=O)O)cc(Br)cc12
IC50 (K562): 35 µM
IC50 at 72 h [10]: > 100 µM
IC50 at 72 h [11]: > 100 µM

SMILES: CCCCCn1cc(CN2C(=O)C3(C(C#N)=C(N)Oc4ccc5c([nH]c6ccccc65)c43)c3ccccc32)nn1 (stereo not drawn)
IC50 (HeLa [12]): 4.8 µM
IC50 (MDA-MB-231 [13]): 4.8 µM
IC50 at 48 h [14]: 4.8 µM
IC50 (MCF7 [2]): 4.8 µM

IC50 (SW1990): 22.4 µM
IC50 (ASPC1): 3.42 µM
SMILES: CCCCn1c2ccccc2c2cc(/C=N/NC(=O)c3ccncc3)ccc21
IC50 [15]: 64.8 µM
IC50 [16]: 65.6 µM

IC50 (A549 [18]): 0.65 µM
SMILES: Cc1c2ccncc2c(C(=O)NCCN(C)C)c2c3cc(CO)ccc3n(C)c12
IC50 at 72 h [17]: 7.33 µM
IC50 (A498): 0.78 µM

SMILES: COc1cccc2c1C(=O)c1c(O)c3c(c(O)c1C2=O)C[C@@](O)(C(=O)CO)C[C@@H]3O[C@H]1C[C@H](N)[C@H](O)[C@H](C)O1 [DOXORUBICIN]
IC50 (SMMC-7721): 1.02 µM
IC50 (Hep 3B2): 1.02 µM

SMILES: COc1ccc(/C=C\c2cc(OC)c(OC)c(OC)c2)cc1OP(=O)(O)O [FOSBRETABULIN]
inhibition in vivo at 50 mg/kg (HepG2 [19]): 48.3%

IC50 (HCT-116): 0.2 µM
IC50 (HepG2 [20]): 0.2 µM
IC50 (HeLa [21]): 0.2 µM
IC50 (OVCAR-3): 0.2 µM
IC50 (DU-145 [22]): 0.2 µM
SMILES: COc1ccc2[nH]c3c4c(c(C)cc3c2c1)OC(C)(C)C=C4 [KOENIMBINE]
IC50 (PA-1): 0.2 µM
